Assay results as given in publication PMC5224920, “Assessing the mechanism and therapeutic potential of modulators of the human Mediator complex-associated protein kinases” (eLife, 2016).

Tested on: 12 single or co-culture in vitro tissue models of primary cells
Assay: Culture/co-culture cell model panel, extracellular biomarkers (DiscoveRx); as to CCL2/MCP-1: reference of the scale not given here; as to CD38: reference of the scale not given here; as to CD40: reference of the scale not given here; as to CD69: reference of the scale not given here; as to CXCL8/IL-8: reference of the scale not given here; as to CXCL9/MIG: reference of the scale not given here; as to IL-1alpha: reference of the scale not given here; as to M-CSF: reference of the scale not given here; as to PBMC Cytotoxicity: reference of the scale not given here
Format: cell-based, human
[1] = /Mphg Huvec+macrophages, 1.00E4 nM
[2] = /Mphg Huvec+macrophages, 1.11E3 nM
[3] = /Mphg Huvec+macrophages, 1.23E2 nM
[4] = /Mphg Huvec+macrophages, 1.37E1 nM
[5] = /Mphg Huvec+macrophages, 3.33E3 nM
[6] = /Mphg Huvec+macrophages, 3.70E2 nM
[7] = /Mphg Huvec+macrophages, 4.12E1 nM
[8] = /Mphg Huvec+macrophages, 4.57E0 nM

`Cc1n[nH]c2ncc(C(=O)N3CCC[C@H]3c3ccc(Cl)cc3)cc12` [CMPD4] was tested, and the “Collagen I” value (/HDFNo, 4.57E0 nM) was -0.029, the “Collagen III” value (/HDFNo, 4.57E0 nM) was 0.064 and the CCL2/MCP-1 [1] was -0.014. It also gave a CCL3/MIP-1alpha [1] of 0.020, a CD40 [1] of 0.064 and a CD62E/E-Selectin [1] of -0.080. For the same compound, the CD69 [1] was 0.239, the CD106/VCAM-1 [1] was 0.005 and the CXCL8/IL-8 [1] was 0.133. The IL-1alpha [1] was -0.065, the M-CSF [1] was 0.054 and the SRB [1] was -0.016. For the same compound, the SRB-Mphg [1] was 0.00054, the sIL-10 [1] was -0.061 and the CCL2/MCP-1 [2] was -0.111. For the same compound, the CCL3/MIP-1alpha [2] was -0.011, the CD40 [2] was 0.027 and the CD62E/E-Selectin [2] was -0.087. For the same compound, the CD69 [2] was 0.187, the CD106/VCAM-1 [2] was -0.0013 and the CXCL8/IL-8 [2] was 0.008. It also gave an IL-1alpha [2] of -0.048, a M-CSF [2] of -0.024 and an SRB [2] of -0.010. It also gave an SRB-Mphg [2] of -0.020, a sIL-10 [2] of -0.122 and a CCL2/MCP-1 [3] of -0.109. The CCL3/MIP-1alpha [3] was 0.015, the CD40 [3] was -0.002 and the CD62E/E-Selectin [3] was -0.108. For the same compound, the CD69 [3] was 0.181, the CD106/VCAM-1 [3] was 0.017 and the CXCL8/IL-8 [3] was 0.014. It also gave an IL-1alpha [3] of -0.049, a M-CSF [3] of -0.028 and an SRB [3] of -0.00948. For the same compound, the SRB-Mphg [3] was 0.00118, the sIL-10 [3] was -0.100 and the CCL2/MCP-1 [4] was -0.054. The CCL3/MIP-1alpha [4] was 0.000182, the CD40 [4] was -0.054 and the CD62E/E-Selectin [4] was -0.144. For the same compound, the CD69 [4] was 0.083, the CD106/VCAM-1 [4] was 0.0075 and the CXCL8/IL-8 [4] was 0.000538. The IL-1alpha [4] was -0.006, the M-CSF [4] was -0.041 and the SRB [4] was -0.007. For the same compound, the SRB-Mphg [4] was 0.004, the sIL-10 [4] was 0.023 and the CCL2/MCP-1 [5] was -0.091. The CCL3/MIP-1alpha [5] was -9.82e-5, the CD40 [5] was 0.039 and the CD62E/E-Selectin [5] was -0.094. For the same compound, the CD69 [5] was 0.200, the CD106/VCAM-1 [5] was 0.025 and the CXCL8/IL-8 [5] was 0.043. It also gave an IL-1alpha [5] of -0.044, a M-CSF [5] of -0.021 and an SRB [5] of -0.013. For the same compound, the SRB-Mphg [5] was 0.00473, the sIL-10 [5] was -0.159 and the CCL2/MCP-1 [6] was -0.110. For the same compound, the CCL3/MIP-1alpha [6] was -0.009, the CD40 [6] was -0.020 and the CD62E/E-Selectin [6] was -0.094. It also gave a CD69 [6] of 0.185, a CD106/VCAM-1 [6] of 0.027 and a CXCL8/IL-8 [6] of 0.00143. It also gave an IL-1alpha [6] of -0.030, a M-CSF [6] of -0.017 and an SRB [6] of -0.005. It also gave an SRB-Mphg [6] of -0.005, a sIL-10 [6] of -0.159 and a CCL2/MCP-1 [7] of -0.089. For the same compound, the CCL3/MIP-1alpha [7] was 0.015, the CD40 [7] was -0.055 and the CD62E/E-Selectin [7] was -0.120. For the same compound, the CD69 [7] was 0.131, the CD106/VCAM-1 [7] was -0.013 and the CXCL8/IL-8 [7] was 0.037. It also gave an IL-1alpha [7] of -0.015, a M-CSF [7] of -0.025 and an SRB [7] of -0.00546. For the same compound, the SRB-Mphg [7] was 0.005, the sIL-10 [7] was -0.021 and the CCL2/MCP-1 [8] was -0.005. It also gave a CCL3/MIP-1alpha [8] of -0.00218, a CD40 [8] of -0.087 and a CD62E/E-Selectin [8] of -0.111. It also gave a CD69 [8] of 0.012, a CD106/VCAM-1 [8] of 0.00354 and a CXCL8/IL-8 [8] of -0.024. It also gave an IL-1alpha [8] of 0.018, a M-CSF [8] of -0.010 and an SRB [8] of 0.001. It also gave an SRB-Mphg [8] of 0.011, a sIL-10 [8] of 0.038 and a CCL2/MCP-1 (/TH2, 1.00E4 nM) of -0.115. It also gave a CCL26/Eotaxin-3 (/TH2, 1.00E4 nM) of -0.131, a CD38 (/TH2, 1.00E4 nM) of -0.035 and a CD40 (/TH2, 1.00E4 nM) of -0.240. The CD62E/E-Selectin (/TH2, 1.00E4 nM) was 0.049, the CD62P/P-selectin (/TH2, 1.00E4 nM) was -0.00467 and the CD69 (/TH2, 1.00E4 nM) was -0.006. For the same compound, the CD87/uPAR (/TH2, 1.00E4 nM) was -0.174, the CD106/VCAM-1 (/TH2, 1.00E4 nM) was -0.004 and the CXCL8/IL-8 (/TH2, 1.00E4 nM) was -0.049. For the same compound, the CXCL9/MIG (/TH2, 1.00E4 nM) was -0.021, the “Collagen IV” value (/TH2, 1.00E4 nM) was 0.028 and the “PBMC Cytotoxicity” value (/TH2, 1.00E4 nM) was -0.00277. For the same compound, the SRB (/TH2, 1.00E4 nM) was -0.174, the sIL-17A (/TH2, 1.00E4 nM) was 0.175 and the sIL-17F (/TH2, 1.00E4 nM) was 0.137. It also gave a CCL2/MCP-1 (/TH2, 1.11E3 nM) of -0.084, a CCL26/Eotaxin-3 (/TH2, 1.11E3 nM) of -0.167 and a CD38 (/TH2, 1.11E3 nM) of -0.006. It also gave a CD40 (/TH2, 1.11E3 nM) of -0.166, a CD62E/E-Selectin (/TH2, 1.11E3 nM) of 0.083 and a CD62P/P-selectin (/TH2, 1.11E3 nM) of -0.044. For the same compound, the CD69 (/TH2, 1.11E3 nM) was 0.041, the CD87/uPAR (/TH2, 1.11E3 nM) was -0.190 and the CD106/VCAM-1 (/TH2, 1.11E3 nM) was 0.034. The CXCL8/IL-8 (/TH2, 1.11E3 nM) was -0.084, the CXCL9/MIG (/TH2, 1.11E3 nM) was -0.034 and the “Collagen IV” value (/TH2, 1.11E3 nM) was -0.00538. For the same compound, the “PBMC Cytotoxicity” value (/TH2, 1.11E3 nM) was -0.052, the SRB (/TH2, 1.11E3 nM) was -0.084 and the sIL-17A (/TH2, 1.11E3 nM) was 0.045. For the same compound, the sIL-17F (/TH2, 1.11E3 nM) was 0.003, the CCL2/MCP-1 (/TH2, 1.23E2 nM) was -0.100 and the CCL26/Eotaxin-3 (/TH2, 1.23E2 nM) was -0.152. The CD38 (/TH2, 1.23E2 nM) was -0.00143, the CD40 (/TH2, 1.23E2 nM) was -0.162 and the CD62E/E-Selectin (/TH2, 1.23E2 nM) was 0.078. It also gave a CD62P/P-selectin (/TH2, 1.23E2 nM) of -0.060, a CD69 (/TH2, 1.23E2 nM) of 0.046 and a CD87/uPAR (/TH2, 1.23E2 nM) of -0.227. The CD106/VCAM-1 (/TH2, 1.23E2 nM) was 0.025, the CXCL8/IL-8 (/TH2, 1.23E2 nM) was -0.055 and the CXCL9/MIG (/TH2, 1.23E2 nM) was -0.030. For the same compound, the “Collagen IV” value (/TH2, 1.23E2 nM) was -0.013, the “PBMC Cytotoxicity” value (/TH2, 1.23E2 nM) was 0.007 and the SRB (/TH2, 1.23E2 nM) was -0.061. It also gave a sIL-17A (/TH2, 1.23E2 nM) of 0.043, a sIL-17F (/TH2, 1.23E2 nM) of 0.061 and a CCL2/MCP-1 (/TH2, 1.37E1 nM) of -0.029. For the same compound, the CCL26/Eotaxin-3 (/TH2, 1.37E1 nM) was -0.152, the CD38 (/TH2, 1.37E1 nM) was 0.015 and the CD40 (/TH2, 1.37E1 nM) was -0.156. For the same compound, the CD62E/E-Selectin (/TH2, 1.37E1 nM) was 0.024, the CD62P/P-selectin (/TH2, 1.37E1 nM) was -0.040 and the CD69 (/TH2, 1.37E1 nM) was 0.016. The CD87/uPAR (/TH2, 1.37E1 nM) was -0.193, the CD106/VCAM-1 (/TH2, 1.37E1 nM) was 0.020 and the CXCL8/IL-8 (/TH2, 1.37E1 nM) was -0.050. The CXCL9/MIG (/TH2, 1.37E1 nM) was 0.013, the “Collagen IV” value (/TH2, 1.37E1 nM) was 0.018 and the “PBMC Cytotoxicity” value (/TH2, 1.37E1 nM) was -0.060. For the same compound, the SRB (/TH2, 1.37E1 nM) was -0.037, the sIL-17A (/TH2, 1.37E1 nM) was -0.008 and the sIL-17F (/TH2, 1.37E1 nM) was 0.096. For the same compound, the CCL2/MCP-1 (/TH2, 3.33E3 nM) was -0.125.
